From patent publication US20240246956A1, “CLASS IIA HISTONE DEACETYLASE (HDAC) DEGRADER LIGANDS AND METHODS OF USE THEREOF” (DANA-FARBER CANCER INSTITUTE, INC., priority 2021, published 2024)

Key:
class IIa HDACs [1] = assay: Global quantitative proteomics, change in protein abundance in Kelly cells; type: cell-based, human; conditions: 5 hours, vs DMSO, moderated t-test
Procedure: (§1) Cells were washed once with phosphate-buffered saline (PBS), harvested with CellstripperTM (Corning®), washed two additional times with PBS and snap frozen in liquid nitrogen. […] Proteins were precipitated using methanol/chloroform in Donovan et al., Elife 7:e38430 (2018). The precipitated protein was resuspended in 4 M Urea, 50 mM HEPES pH 7.4, followed by dilution to 1 M urea with the addition of 200 mM EPPS, pH 8. Proteins were first digested with LysC (1:50: enzyme:protein) for 12 hours at room temperature. The LysC digestion was diluted to 0.5 M Urea with 200 mM EPPS pH 8 followed by digestion with trypsin (1:50: enzyme:protein) for 6 hours at 37° C. Tandem mass tag (TMT) reagents (Thermo Fisher Scientific) were dissolved in anhydrous acetonitrile (ACN) according to manufacturer's instructions. Anhydrous ACN was added to each peptide sample to a final concentration of 30% v/v, and labeling was induced with the addition of TMT reagent to each sample at a ratio of 1:4 peptide:TMT label. The 11-plex labeling reactions were performed for 1.5 hours at room temperature and the reaction quenched by the addition of hydroxylamine to a final concentration of 0.3% for 15 minutes at room temperature. The sample channels were combined at a 1:1 ratio, desalted using C18 solid phase extraction cartridges (Waters®) and analyzed by LC-MS for channel ratio comparison. Samples were then combined using the adjusted volumes determined in the channel ratio analysis and dried down in a speed vacuum. The combined sample was then resuspended in 1% formic acid, and acidified (pH 2-3) before being subjected to desalting with C18 SPE (Sep-Pak®-, Waters®). […] Proteome Discoverer 2.2 (Thermo Fisher Scientific) was used for .RAW file processing and controlling peptide and protein level false discovery rates, assembling proteins from peptides, and protein quantification from peptides. […] TMT reporter ion intensities were measured using a 0.003 Da window around the theoretical m/z for each reporter ion in the MS3 scan. […]

HDAC5 = HDAC5 (Homo sapiens, UniProt Q9UQL6); assay: as above; type: cell-based; set-up: endogenous in cells; host or cells: Kelly cells; conditions: 5 μM, 5-hour treatment, vs DMSO, FIG. 3
Procedure: (§2) Cells were washed once with phosphate-buffered saline (PBS), harvested with CellstripperTM (Corning®), washed two additional times with PBS and snap frozen in liquid nitrogen. […] Proteins were precipitated using methanol/chloroform in Donovan et al., Elife 7:e38430 (2018). The precipitated protein was resuspended in 4 M Urea, 50 mM HEPES pH 7.4, followed by dilution to 1 M urea with the addition of 200 mM EPPS, pH 8. Proteins were first digested with LysC (1:50: enzyme:protein) for 12 hours at room temperature. The LysC digestion was diluted to 0.5 M Urea with 200 mM EPPS pH 8 followed by digestion with trypsin (1:50: enzyme:protein) for 6 hours at 37° C. Tandem mass tag (TMT) reagents (Thermo Fisher Scientific) were dissolved in anhydrous acetonitrile (ACN) according to manufacturer's instructions. Anhydrous ACN was added to each peptide sample to a final concentration of 30% v/v, and labeling was induced with the addition of TMT reagent to each sample at a ratio of 1:4 peptide:TMT label. The 11-plex labeling reactions were performed for 1.5 hours at room temperature and the reaction quenched by the addition of hydroxylamine to a final concentration of 0.3% for 15 minutes at room temperature. The sample channels were combined at a 1:1 ratio, desalted using C18 solid phase extraction cartridges (Waters®) and analyzed by LC-MS for channel ratio comparison. Samples were then combined using the adjusted volumes determined in the channel ratio analysis and dried down in a speed vacuum. The combined sample was then resuspended in 1% formic acid, and acidified (pH 2-3) before being subjected to desalting with C18 SPE (Sep-Pak®-, Waters®). […] The 96 resulting fractions were then pooled in a non-contiguous manner into 24 fractions and these fractions were used for subsequent mass spectrometry analysis. Data were collected using an Orbitrap FusionTM LumosTM mass spectrometer (Thermo Fisher Scientific, San Jose, CA, USA) coupled with a […] pump (Thermo Fisher Scientific). Peptides were separated on an EasySprayTM ES803.rev2 75 μm inner diameter microcapillary column (ThermoFisher Scientific). Peptides were separated using a 190 min gradient of 6-27% acetonitrile in 1.0% formic acid with a flow rate of 300 nL/min. Each analysis used an MS3-based TMT method as described in McAlister et al., Anal. Chem. 86(14):7150-7158 (2014). The data were acquired using a mass range of m/z 340-1350, resolution 120,000, automatic gain control (AGC) target 1×10^6, maximum injection time 100 ms, dynamic exclusion of 120 seconds for the peptide measurements in the Orbitrap FusionTM LumosTM mass spectrometer. Data dependent MS2 spectra were acquired in the ion trap with a normalized collision energy (NCE) set at 55%, AGC target set to 1.5×10^5 and a maximum injection time of 150 ms. MS3 scans were acquired in the Orbitrap FusionTM LumosTM mass spectrometer with a higher energy collision dissociation (HCD) set to 55%, AGC target set to 1.5×10^5, maximum injection time of 150 ms, resolution at 50,000 and with a maximum synchronous precursor selection (SPS) precursors set to 10. Proteome Discoverer 2.2 (Thermo Fisher Scientific) was used for .RAW file processing and controlling peptide and protein level false discovery rates, assembling proteins from peptides, and protein quantification from peptides. MS/MS spectra were searched against a Swissprot human database (December 2016) with both the forward and reverse sequences. […] TMT reporter ion intensities were measured using a 0.003 Da window around the theoretical m/z for each reporter ion in the MS3 scan. […] Reporter ion intensities were normalized and scaled using in-house scripts in the R framework. Statistical analysis was carried out using the limma package within the R framework as described in Ritchie et al., Nucleic Acids Res. 43(7):e47 (2015).

HDAC7 = target: T1, HDAC7 (Homo sapiens, UniProt Q8WUI4); assay: as above; type: cell-based; set-up: endogenous in cells; host or cells: Kelly cells; conditions: 5-hour treatment, vs DMSO, FIG. 3
T1 sequence (Q8WUI4 1-952): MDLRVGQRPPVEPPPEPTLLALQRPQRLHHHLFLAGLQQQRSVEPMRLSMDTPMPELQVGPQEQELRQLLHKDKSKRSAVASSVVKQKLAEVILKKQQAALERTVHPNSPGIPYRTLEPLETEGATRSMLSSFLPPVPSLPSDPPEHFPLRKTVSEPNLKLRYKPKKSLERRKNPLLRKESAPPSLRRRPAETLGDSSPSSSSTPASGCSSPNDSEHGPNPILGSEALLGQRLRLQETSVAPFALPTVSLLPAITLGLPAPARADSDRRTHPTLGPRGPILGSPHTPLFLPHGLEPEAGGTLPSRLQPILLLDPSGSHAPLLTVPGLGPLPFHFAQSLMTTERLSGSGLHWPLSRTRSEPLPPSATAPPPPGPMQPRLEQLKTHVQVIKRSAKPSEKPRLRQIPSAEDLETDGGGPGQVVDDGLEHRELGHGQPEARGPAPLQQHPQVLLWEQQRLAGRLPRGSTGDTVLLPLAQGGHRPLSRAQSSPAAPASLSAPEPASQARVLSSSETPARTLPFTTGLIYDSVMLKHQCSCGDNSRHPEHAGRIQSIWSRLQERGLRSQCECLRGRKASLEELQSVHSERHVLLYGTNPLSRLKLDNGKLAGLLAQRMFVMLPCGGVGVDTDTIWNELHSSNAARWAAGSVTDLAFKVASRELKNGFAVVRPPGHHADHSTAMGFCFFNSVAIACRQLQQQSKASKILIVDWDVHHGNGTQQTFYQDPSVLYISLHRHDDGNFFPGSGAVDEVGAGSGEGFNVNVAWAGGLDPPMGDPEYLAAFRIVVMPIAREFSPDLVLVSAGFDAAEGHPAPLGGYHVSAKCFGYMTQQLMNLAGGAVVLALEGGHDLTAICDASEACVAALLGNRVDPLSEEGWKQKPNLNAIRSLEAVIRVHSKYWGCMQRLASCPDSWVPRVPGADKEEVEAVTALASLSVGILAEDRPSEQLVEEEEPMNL
Procedure: as §2

class IIa HDACs [2] = assay: Global quantitative proteomics, change in protein abundance in MM.1S cells; type: cell-based, human; conditions: 1 μM, 5-hour treatment, vs DMSO, moderated t-test, FIG. 5
Procedure: as §1, with “Tandem mass tag (TMT) reagents (Thermo Fisher Scientific) were dissolved in anhydrous acetonitrile (ACN) according to manufacturer's instructions. Anhydrous ACN was added to each peptide sample to a final concentration of 30% v/v, and labeling was induced with the addition of TMT reagent to each sample at a ratio of 1:4 peptide:TMT label. The 11-plex labeling reactions were performed for 1.5 hours at room temperature and the reaction quenched by the addition of hydroxylamine to a final concentration of 0.3% for 15 minutes at room temperature.” left out, “vacuum.” for “vacuum. The combined sample was then resuspended in 1% formic acid, and acidified (pH 2-3) before being subjected to desalting with C18 SPE (Sep-Pak®-, Waters®).”

HDAC5, sequence (Q9UQL6 whole entry): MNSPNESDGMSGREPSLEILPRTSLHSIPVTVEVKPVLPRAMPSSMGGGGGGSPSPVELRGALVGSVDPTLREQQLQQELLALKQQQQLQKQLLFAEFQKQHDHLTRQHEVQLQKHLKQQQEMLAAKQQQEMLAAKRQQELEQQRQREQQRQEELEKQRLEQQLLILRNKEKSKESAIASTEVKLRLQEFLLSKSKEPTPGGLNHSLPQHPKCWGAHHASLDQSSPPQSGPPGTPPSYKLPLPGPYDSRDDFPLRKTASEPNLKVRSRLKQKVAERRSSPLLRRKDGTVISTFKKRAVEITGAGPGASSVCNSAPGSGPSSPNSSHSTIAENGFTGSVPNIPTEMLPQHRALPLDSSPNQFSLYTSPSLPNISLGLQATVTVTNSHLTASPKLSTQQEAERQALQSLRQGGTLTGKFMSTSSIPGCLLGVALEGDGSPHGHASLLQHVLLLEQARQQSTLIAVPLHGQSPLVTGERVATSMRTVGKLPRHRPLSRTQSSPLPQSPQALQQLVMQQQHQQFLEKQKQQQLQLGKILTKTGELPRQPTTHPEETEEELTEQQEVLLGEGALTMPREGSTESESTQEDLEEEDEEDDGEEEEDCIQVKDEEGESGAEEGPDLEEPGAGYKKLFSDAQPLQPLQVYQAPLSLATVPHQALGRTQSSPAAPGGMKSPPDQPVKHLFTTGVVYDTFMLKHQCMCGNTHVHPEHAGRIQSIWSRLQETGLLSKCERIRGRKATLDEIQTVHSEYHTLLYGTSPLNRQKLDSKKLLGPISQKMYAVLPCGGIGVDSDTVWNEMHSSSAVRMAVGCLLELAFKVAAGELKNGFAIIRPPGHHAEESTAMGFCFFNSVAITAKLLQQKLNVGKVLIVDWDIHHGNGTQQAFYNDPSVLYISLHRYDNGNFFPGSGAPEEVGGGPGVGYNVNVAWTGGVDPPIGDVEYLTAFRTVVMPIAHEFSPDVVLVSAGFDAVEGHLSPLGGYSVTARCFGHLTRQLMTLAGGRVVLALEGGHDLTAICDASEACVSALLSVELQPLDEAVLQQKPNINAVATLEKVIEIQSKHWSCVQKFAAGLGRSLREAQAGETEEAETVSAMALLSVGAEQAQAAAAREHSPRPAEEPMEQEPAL

Structure (SMILES) | class IIa HDAC levels (relative protein abundance) (class IIa HDACs [1]; 5 μM, FIG. 4A) | protein expression level of HDAC5 (HDAC5) | protein expression level of HDAC7 (HDAC7; 5 μM) | class IIa HDAC levels (relative protein abundance) (class IIa HDACs [1]; 1 μM, FIG. 4B-4C) | class IIa HDAC levels (relative protein abundance) (class IIa HDACs [2]) | protein expression level of HDAC7 (HDAC7; 1 μM)
O=C1CCC(N2C(=O)c3cccc(NCCN4CCC(CNC(=O)c5cccc(-c6noc(C(F)(F)F)n6)c5)(c5nc(-c6ccccc6)cs5)CC4)c3C2=O)C(=O)N1 (stereo not drawn) [Compound 3, N-((1-(2-((2-(2,6-dioxopiperidin-3-yl)-1,3-dioxoisoindolin-4-yl)amino)ethyl)-4-(4-phenylthiazol-2-yl)piperidin-4-yl)methyl)-3-(5-(trifluoromethyl)-1,2,4-oxadiazol-3-yl)benzamide] | significant reduction | reduction in protein expression level | reduction in protein expression level | – | – | –
CCN(CCOCCOCCC(=O)N[C@H](C(=O)N1C[C@H](O)C[C@H]1C(=O)N[C@@H](C)c1ccc(-c2scnc2C)cc1)C(C)(C)C)C[C@@H](C)NC(=O)c1ccc(-c2noc(C(F)(F)F)n2)cc1 [Compound 17] | – | – | – | significant reduction | significant reduction | selective reduction in protein expression level
